This note sets out measurements from publication PMC6637425 (ChemMedChem, 2019).

A value given as a limit tells only on which side of the number the result lay.

The target in experiment [1] is BACE1 enzyme (Homo sapiens, UniProt P56817). Description: BACE1 enzyme inhibition, Ki from kinetic data under tight-binding conditions. Format: biochemical. Particulars: for Ki: Ki (nM) BACE1, Table 3; for selectivity for BACE1 against BACE2: ratio of Ki values.
The target of experiment [2] is T1, BACE2 enzyme (Homo sapiens, UniProt Q9Y5Z0).
T1 sequence (Q9Y5Z0 63-518): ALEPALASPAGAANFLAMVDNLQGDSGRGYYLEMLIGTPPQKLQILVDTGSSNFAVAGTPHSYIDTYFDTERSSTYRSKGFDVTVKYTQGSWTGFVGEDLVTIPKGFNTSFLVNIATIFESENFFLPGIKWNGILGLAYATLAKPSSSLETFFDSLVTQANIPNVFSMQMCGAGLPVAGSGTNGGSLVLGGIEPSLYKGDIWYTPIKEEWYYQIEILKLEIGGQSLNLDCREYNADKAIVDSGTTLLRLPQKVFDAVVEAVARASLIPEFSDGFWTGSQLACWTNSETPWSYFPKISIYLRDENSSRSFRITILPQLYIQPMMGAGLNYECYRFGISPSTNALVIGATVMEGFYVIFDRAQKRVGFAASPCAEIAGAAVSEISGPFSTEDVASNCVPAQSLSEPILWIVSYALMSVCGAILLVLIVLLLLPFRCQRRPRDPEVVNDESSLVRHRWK
Nature of the experiment: BACE2 enzyme inhibition, Ki from kinetic data under tight-binding conditions. Format: biochemical. To be noted: Ki (nM) BACE2, Table 3.

BACE1 enzyme, sequence (P56817 46-501): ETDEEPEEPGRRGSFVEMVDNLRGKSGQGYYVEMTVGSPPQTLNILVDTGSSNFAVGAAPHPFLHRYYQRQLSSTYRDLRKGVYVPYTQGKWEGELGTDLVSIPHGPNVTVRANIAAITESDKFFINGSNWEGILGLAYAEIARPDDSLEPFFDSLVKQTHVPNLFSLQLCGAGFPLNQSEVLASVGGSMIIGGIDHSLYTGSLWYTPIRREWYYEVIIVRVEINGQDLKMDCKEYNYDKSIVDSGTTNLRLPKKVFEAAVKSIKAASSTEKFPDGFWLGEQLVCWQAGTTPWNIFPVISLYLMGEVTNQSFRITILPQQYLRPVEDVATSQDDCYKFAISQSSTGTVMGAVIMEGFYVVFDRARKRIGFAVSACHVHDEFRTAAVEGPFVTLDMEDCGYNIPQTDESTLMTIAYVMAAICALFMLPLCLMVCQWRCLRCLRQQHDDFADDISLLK

One may read the Ki as the dissociation constant of the complex between target and ligand, obtained from inhibition or displacement. A lower Ki goes with a stronger hold on the target. For `COc1cccc(CNC[C@@H](O)[C@H](Cc2ccccc2)NC(=O)c2cccc(C(=O)N(C)Cc3nc(C)co3)c2)c1` [inhibitor 3m, N^1-((2S,3R)-3-Hydroxy-4-((3-methoxybenzyl)amino)-1-phenylbutan-2-yl)-N^3-methyl-N^3-((4-methyloxazol-2-yl)methyl)isophthalamide], the values for the inhibition constant Ki in experiment [1] and in experiment [2] were 68.8 nM and 7330 nM, respectively. For the same compound, in experiment [1], the “selectivity for BACE1 against BACE2” value is “over 100 fold”.
Taken in the same sequence, the figures for `COc1cccc(CNC[C@@H](O)[C@H](Cc2ccccc2)NC(=O)c2cc(C)cc(C(=O)N(C)Cc3nc(C)co3)c2)c1` [inhibitor 3n, N^1-((2S,3R)-3-Hydroxy-4-((3-methoxybenzyl)amino)-1-phenylbutan-2-yl)-N^3,5-dimethyl-N^3-((4-methyloxazol-2-yl)methyl)isophthalamide] were 25.4 nM, 1920 nM and above 75 fold.
